Data taken from ChEMBL document CHEMBL1145841, “Design and synthesis of poly ADP-ribose polymerase-1 inhibitors. 2. Biological evaluation of aza-5[H]-phenanthridin-6-ones as potent, aqueous-soluble compounds for the treatment of ischemic injuries” (J Med Chem, 2003).

Tests used:
[1] = molecular target: Poly [ADP-ribose] polymerase 1 (Homo sapiens, UniProt P09874); assay: Inhibitory activity against Poly (ADP-ribose) polymerase 1
P388 = assay: Effective concentration required to inhibit P388D1 cell death by 50%; type: functional, cell-based; settings: Mus musculus
Rattus norvegicus [2] = assay: Cerebral Ischemic stroke was expressed to determine the reduction in infarct volume at a dose of 40 mg/kg administered intraperitoneally in rats; type: functional; settings: route intraperitoneal
[3] = Maximum concentration in plasma of rats after intravenous administration; type: ADME, organism-based; design: route intravenous; settings: rat
[4] = Maximum concentration in heart of rats after intravenous administration; type: ADME, organism-based; design: route intravenous; settings: rat
Rattus norvegicus [5] = assay: Myocardial Ischemic stroke was expressed to determine the reduction in infarct volume at a dose of 80 mg/kg administered intravenously in rats; type: functional, Myocardium; settings: route intravenous
[6] = Maximum concentration in brain of rats after intravenous administration; type: ADME, organism-based; design: route intravenous; settings: rat
Rattus norvegicus [7] = assay: Myocardial Ischemic stroke was expressed to determine the reduction in infarct volume at a dose of 40 mg/kg administered intravenously in rats; type: functional, Myocardium; settings: route intravenous
Rattus norvegicus [8] = assay: Cerebral Ischemic stroke was expressed to determine the reduction in infarct volume at a dose of 80 mg/kg administered intravenously in rats; type: functional; settings: route intravenous
Rattus norvegicus [9] = assay: Myocardial Ischemic stroke was expressed to determine the reduction in infarct volume at a dose of 20 mg/kg administered intravenously in rats; type: functional, Myocardium; settings: route intravenous
Rattus norvegicus [10] = assay: Cerebral Ischemic stroke was expressed to determine the reduction in infarct volume at a dose of 40 mg/kg administered intravenously i in rats; type: functional; settings: route intravenous
Rattus norvegicus [11] = assay: Cerebral Ischemic stroke was expressed to determine the reduction in infarct volume at a dose of 80 mg/kg administered intravenously i in rats; type: functional; settings: route intravenous
Rattus norvegicus [12] = assay: Cerebral Ischemic stroke was expressed to determine the reduction in infarct volume at a dose of 20 mg/kg administered intravenously i in rats; type: functional; settings: route intravenous
Rattus norvegicus [13] = assay: Cerebral Ischemic stroke was expressed to determine the reduction in infarct volume at a dose of 40 mg/kg administered intravenously in rats; type: functional; settings: route intravenous
Rattus norvegicus [14] = assay: Cerebral Ischemic stroke was expressed to determine the reduction in infarct volume at a dose of 80 mg/kg administered intraperitoneally in rats; type: functional; settings: route intraperitoneal

Chain of Poly [ADP-ribose] polymerase 1 (P09874 whole entry): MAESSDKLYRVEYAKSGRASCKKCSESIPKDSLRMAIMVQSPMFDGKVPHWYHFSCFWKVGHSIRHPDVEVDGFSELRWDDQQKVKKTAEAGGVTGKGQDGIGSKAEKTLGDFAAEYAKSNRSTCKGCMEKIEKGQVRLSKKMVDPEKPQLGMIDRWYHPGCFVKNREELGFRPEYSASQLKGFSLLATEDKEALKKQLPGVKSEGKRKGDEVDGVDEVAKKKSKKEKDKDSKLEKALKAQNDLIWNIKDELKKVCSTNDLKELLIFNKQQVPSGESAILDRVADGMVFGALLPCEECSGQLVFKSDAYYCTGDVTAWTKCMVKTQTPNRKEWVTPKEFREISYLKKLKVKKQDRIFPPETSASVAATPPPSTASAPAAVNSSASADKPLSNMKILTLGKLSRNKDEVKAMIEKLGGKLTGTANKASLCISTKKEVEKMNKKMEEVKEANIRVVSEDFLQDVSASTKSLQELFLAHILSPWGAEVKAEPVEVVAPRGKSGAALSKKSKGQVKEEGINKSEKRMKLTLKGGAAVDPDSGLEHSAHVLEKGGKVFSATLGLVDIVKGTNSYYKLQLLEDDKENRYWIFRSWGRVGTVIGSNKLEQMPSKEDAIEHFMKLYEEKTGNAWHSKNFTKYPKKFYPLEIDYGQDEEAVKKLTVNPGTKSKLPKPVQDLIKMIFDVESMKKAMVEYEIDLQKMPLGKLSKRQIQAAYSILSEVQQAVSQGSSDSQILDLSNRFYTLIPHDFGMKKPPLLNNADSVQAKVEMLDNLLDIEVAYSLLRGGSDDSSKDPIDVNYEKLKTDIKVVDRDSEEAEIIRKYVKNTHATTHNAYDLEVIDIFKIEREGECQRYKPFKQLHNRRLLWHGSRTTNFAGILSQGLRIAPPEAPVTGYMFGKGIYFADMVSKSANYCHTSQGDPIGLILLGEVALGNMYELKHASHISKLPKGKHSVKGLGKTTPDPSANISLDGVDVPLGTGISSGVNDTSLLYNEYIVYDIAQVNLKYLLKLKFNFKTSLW

CC(C)N1CCN(CC(=O)Nc2ccc3nc(O)c4ccccc4c3n2)CC1
IC50 [1]: 0.277 µM

CCN(CC)CCNc1ccc2[nH]c(=O)c3ccccc3c2n1
IC50 [1]: 0.173 µM

NC(=O)c1ccccc1 [BENZAMIDE]
IC50 [1]: 20 µM

CN1C[C@H]2C[C@@H]1CN2c1ccc2nc(O)c3ccccc3c2n1
EC50 (P388): 0.24 µM

CC(C)(C)OC(=O)N1C[C@H]2C[C@@H]1CN2c1ccc2[nH]c(=O)c3ccccc3c2n1
IC50 [1]: 0.774 µM

Oc1nc2ccc(N3C[C@H]4C[C@@H]3CN4)nc2c2ccccc12
IC50 [1]: 0.042 µM

O=c1[nH]c2ccccc2c2ccccc12
IC50 [1]: 0.35 µM
Reduction (Rattus norvegicus [2]): -7%

CN1CCN(c2ccc3nc(O)c4ccccc4c3n2)CC1
EC50 (P388): 0.125 µM

Nc1ccc2[nH]c(=O)c3ccccc3c2n1
IC50 [1]: 0.209 µM

Oc1nc2ccncc2c2ccccc12
Reduction (Rattus norvegicus [2]): 47%

C[N+]1([O-])CCN(c2ccc3nc(O)c4ccccc4c3n2)CC1
EC50 (P388): 5.8 µM
Cmax [3]: 10 ng/mL

O=C(CN1CCC(N2CCCC2)CC1)Nc1cnc2c(c1)nc(O)c1ccccc12
EC50 (P388): 1.14 µM

O=C(CN1CCCCC1)Nc1ccc2nc(O)c3ccccc3c2n1
EC50 (P388): 1.11 µM

Cl.O=C(CN1CCC(N2CCCC2)CC1)Nc1ccc2nc(O)c3ccccc3c2n1
Cmax [4]: 38400 ng/g
Reduction (Rattus norvegicus [5]): 44%
EC50 (P388): 1.27 µM
Cmax [6]: 1440 ng/g
Reduction (Rattus norvegicus [7]): 39%
Reduction (Rattus norvegicus [8]): -1%
Reduction (Rattus norvegicus [9]): 13%
Cmax [3]: 4790 ng/mL

CN1CCN(c2ccc3nc(O)c4ccccc4c3n2)CC1.CS(=O)(=O)O
Cmax [4]: 2980 ng/g
Reduction (Rattus norvegicus [5]): 25.5%
Reduction (Rattus norvegicus [10]): 18%
Reduction (Rattus norvegicus [11]): 35%
Cmax [6]: 13700 ng/g
Reduction (Rattus norvegicus [12]): 33%
Reduction (Rattus norvegicus [7]): 18.8%
Reduction (Rattus norvegicus [13]): 44%
Cmax [3]: 456 ng/mL

O=c1[nH]c2cnccc2c2ccccc12
IC50 [1]: 0.169 µM

CS(=O)(=O)O.Oc1nc2ccc(N3CCN(CC4CC4)CC3)nc2c2ccccc12
Cmax [4]: 7480 ng/g
IC50 [1]: 0.071 µM
EC50 (P388): 0.145 µM
Cmax [6]: 8850 ng/g
Reduction (Rattus norvegicus [7]): 36%
Cmax [3]: 1950 ng/mL

CN(C)CC(=O)Nc1cnc2c(c1)nc(O)c1ccccc12
EC50 (P388): 2.63 µM

CN(C)C1CCN(c2ccc3nc(O)c4ccccc4c3n2)CC1
IC50 [1]: 0.112 µM
EC50 (P388): 0.135 µM

Oc1nc2ccc(N3CCC(N4CCCC4)CC3)nc2c2ccccc12
EC50 (P388): 0.177 µM

CN(C)CC(=O)Nc1ccc2nc(O)c3ccccc3c2n1
EC50 (P388): 2.08 µM

O=c1[nH]c2cccnc2c2ccccc12
Reduction (Rattus norvegicus [14]): 55%

CS(=O)(=O)O.Oc1nc2ccc(N3CCNCC3)nc2c2ccccc12
Cmax [4]: 20300 ng/g
IC50 [1]: 0.058 µM
EC50 (P388): 0.15 µM
Cmax [6]: 2180 ng/g
Cmax [3]: 3790 ng/mL
